Here are results for two molecules from patent US6884799B2, “Non-cross-linking pyrrolo[2,1-c][1,4]benzodiazepines and process thereof” (Council of Scientific and Industrial Research, priority 2003, dated 2005).

Usually GI50 stands for the concentration that inhibits growth by half.

Holding throughout (assay type): cell-based
Data set [1] concerns prostate cancer cell lines. Put plainly: NCI in vitro cytotoxicity, SRB assay, prostate panel. The note with it: Homo sapiens, read-out: Log LC50 (concentration in mol/L causing 50% lethality) (converted). How it is done: (§1) Biological Activity. In vitro biological activity studies were carried out at National Cancer Institute (USA).
(§2) Cytotoxicity. Compounds Va and Vc were evaluated in vitro against sixty human tumour cells derived from nine cancer types (leukemia, non-small-cell lung, colon, CNS, melanoma, ovarian, prostate, and breast cancer). For each compound, dose response curves for each cell line were measured at a minimum of five concentrations at 10 fold dilutions. A protocol of 48 h continuous drug exposure was used, and a sulforhodamine B (SRB) protein assay was used to estimate cell viability or growth. The concentration causing 50% cell growth inhibition (GI50), total cell growth inhibition (TGI 0% growth) and 50% cell death (LC50, −50% growth) compared with the control was calculated.
(§3) Each cancer type represents the average of six to eight different cancer cell lines.
A general note: Sulforhodamine B stains cellular protein and so reports cell mass.

For data set [2], the system named is non-small-cell lung cancer cell lines. Put plainly: NCI in vitro cytotoxicity, SRB assay, non-small-cell lung panel. The note with it: Homo sapiens, read-out: Log LC50 (concentration in mol/L causing 50% lethality) (converted). As for the experimental part: as §1, §2, §3
The test system of data set [3] is ovarian cancer cell lines. Kind of data set: NCI in vitro cytotoxicity, SRB assay, ovarian panel. The note with it: Homo sapiens, read-out: Log LC50 (concentration in mol/L causing 50% lethality) (converted). How it is done:
as §1, §2, §3

Data set [4] concerns Breast cancer cell lines. Kind of data set: NCI in vitro cytotoxicity, SRB assay, breast panel. To be noted: Homo sapiens, read-out: Log LC50 (concentration in mol/L causing 50% lethality) (converted). As for the experimental part: as §1, §2, §3
The subject of data set [5] is melanoma cancer cell lines. Put plainly: NCI in vitro cytotoxicity, SRB assay, melanoma panel. To be noted: Homo sapiens, read-out: Log LC50 (concentration in mol/L causing 50% lethality) (converted). As for the experimental part:
as §1, §2, §3

Data set [6] relates to CNS cancer cell lines. Kind of data set: NCI in vitro cytotoxicity, SRB assay, CNS panel. The note with it: Homo sapiens, read-out: Log LC50 (concentration in mol/L causing 50% lethality) (converted). As for the experimental part: as §1, §2, §3
The subject of data set [7] is renal cancer cell lines. Kind of data set: NCI in vitro cytotoxicity, SRB assay, renal panel. The note with it: Homo sapiens, read-out: Log LC50 (concentration in mol/L causing 50% lethality) (converted). How it is done: as §1, §2, §3
Data set [8] deals with colon cancer cell lines. Put plainly: NCI in vitro cytotoxicity, SRB assay, colon panel. To be noted: Homo sapiens, read-out: Log LC50 (concentration in mol/L causing 50% lethality) (converted). How it is done: as §1, §2, §3
Data set [9] has as its system leukemia cancer cell lines. Kind of data set: NCI in vitro cytotoxicity, SRB assay, leukemia panel. The note with it: Homo sapiens, read-out: Log LC50 (concentration in mol/L causing 50% lethality) (converted). How it is done:
as §1, §2, §3

Data set [10] has as its system sixty human tumour cells derived from nine cancer types. Kind of data set: cells. To be noted: for GI50 / CC50: Homo sapiens, 48 h; for GI50: read-out: Log10 GI50 mean graph midpoint (MG_MID) (converted); for CC50: read-out: Log10 LC50 mean graph midpoint (MG_MID) (converted); for Log10 TGI mean graph midpoint (MG_MID): total cell growth inhibition (0% growth), 48 h continuous drug exposure, SRB. As for the experimental part:
as §1, §2

`COc1cc2c(cc1OCCCOc1cc3c(cc1OC)C(=O)N1CCC[C@H]1CN3)N=C[C@@H]1CCCN1C2=O` [Compound Va, 7-Methoxy-8-{3-[7-methoxy-(11aS)-1,2,3,10,11,11a-hexahydro-5H-pyrrolo[2,1-c][1,4]benzodiazepine-5-one-8-yloxy]propoxy}-(11aS)-1,2,3,11a-tetrahydro-5H-pyrrolo[2,1-c][1,4]benzodiazepine-5-one]: the CC50 in data set [1] is 83.2 µM; in data set [2] it was 38.9 µM; in [3], 70.8 µM; in data set [4], 43.7 µM; in [5] it was 3.55 µM; in [6] it was 32.4 µM. Besides, the CC50 is 63.1 µM in data set [7], 25.7 µM in data set [8], 83.2 µM in data set [9] and 33.1 µM in data set [10]. Moreover, in [10], the “cytotoxic / anticancer activity in words” value is “slightly higher activity”. The GI50 in data set [10] is 0.158 µM. Further, the “Log10 TGI mean graph midpoint (MG_MID)” value in [10] is −5.73.

On to `COc1cc2c(cc1OCCCCCOc1cc3c(cc1OC)C(=O)N1CCC[C@H]1CN3)N=C[C@@H]1CCCN1C2=O` [Compound Vc, 7-Methoxy-8-{5-[7-methoxy-(11aS)-1,2,3,10,11,11a-hexahydro-5H-pyrrolo[2,1-c][1,4]benzodiazepine-5-one-8-yloxy]pentyloxy}-(11aS)-1,2,3,11a-tetrahydro-5H-pyrrolo[2,1-c][1,4]benzodiazepine-5-one], for which the CC50 is at least 100 µM in [1]; 72.4 µM in [2]; 97.7 µM in data set [3]; 89.1 µM in data set [4]; 38 µM in data set [5]; 81.3 µM in data set [6]. Also, the CC50 in data set [7] was 95.5 µM; in [8], 91.2 µM; in data set [9], 34.7 µM; in [10], 70.8 µM. Further, the “cytotoxic / anticancer activity in words” value in data set [10] was “interesting profile of activity and selectivity for various cell lines”. For the same molecule, the GI50 in data set [10] was 5.13 µM. In [10], the “Log10 TGI mean graph midpoint (MG_MID)” value is reported as −4.55.
